Laboratory results reported in ChEMBL document CHEMBL1201862, “PubChem BioAssay data set” (2004).
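The compound was tested at five concentrations on cells cultured in 96-well plates, with a 48-hour exposure period. GI50 = concentration required for 50% inhibition of growth.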 Calls of active or inactive are those of the source. No stated cut-off is given here; in the data, active = GI50 up to about 1.1 µM and inactive = higher.

Experiments:
Experiment in all cases: NCI anticancer screen, dose series, 48 h
[1] = system: SNB-78
[2] = system: NCI-H460
[3] = system: CCRF-CEM
[4] = system: HCT-116
[5] = system: NCI-H522
[6] = system: SW-620
[7] = system: MDA-MB-435
[8] = system: SK-MEL-5
[9] = system: UACC-257
[10] = system: U-251
[11] = system: LOX IMVI
[12] = system: SK-OV-3
[13] = system: EKVX
[14] = system: Malme-3M
[15] = system: COLO 205
[16] = system: A498
[17] = system: SNB-75
[18] = system: SN12C
[19] = system: CAKI-1
[20] = system: BT-549

Row | SMILES | GI50 [1] | GI50 [2] | GI50 [3] | GI50 [4] | GI50 [5] | GI50 [6] | GI50 [7] | GI50 [8] | GI50 [9] | GI50 [10] | GI50 [11] | GI50 [12] | GI50 [13] | GI50 [14] | GI50 [15] | GI50 [16] | GI50 [17] | GI50 [18] | GI50 [19] | GI50 [20]
1 | COC1CC(C)C(OC)c2cc(O)cc(c2O)NC(=O)/C(C)=C/C=C\C(C)C(OC(N)=O)/C(C)=C\C(C)C1OC (stereo unspecified) | 1.42 µM (inactive) | 0.203 µM (active) | 0.192 µM (active) | 0.297 µM (active) | 0.0863 µM (active) | 0.082 µM (active) | 0.0998 µM (active) | 0.268 µM (active) | 0.397 µM (active) | 0.497 µM (active) | 0.471 µM (active) | 0.292 µM (active) | 10.5 µM (inactive) | 0.225 µM (active) | 0.0516 µM (active) | 3.49 µM (inactive) | 0.776 µM (active) | 0.36 µM (active) |  | 
2 | C/C(=N\N)C(CN1CCCCC1)C(c1ccccc1)c1c(O)c2ccccc2oc1=O (stereo unspecified) | > 100 µM (inactive) | > 100 µM (inactive) | > 100 µM (inactive) | > 100 µM (inactive) | > 100 µM (inactive) | > 100 µM (inactive) | > 100 µM (inactive) | > 100 µM (inactive) | > 100 µM (inactive) | > 100 µM (inactive) | 25.7 µM (inactive) | > 100 µM (inactive) | > 100 µM (inactive) | > 87.7 µM (inactive) | > 100 µM (inactive) | > 100 µM (inactive) | 32.7 µM (inactive) | > 100 µM (inactive) | > 100 µM (inactive) | > 100 µM (inactive)
3 | CC[C@@]1(OC(=O)C(N)CCC(=O)O)C(=O)OCc2c1cc1n(c2=O)Cc2cc3ccccc3nc2-1 (stereo partly specified) | 1.82 µM (inactive) | 0.0112 µM (active) | < 0.01 µM (active) | 0.122 µM (active) | 0.0536 µM (active) | 0.179 µM (active) | 0.219 µM (active) | 0.0736 µM (active) | 0.228 µM (active) | 0.0202 µM (active) | 0.0196 µM (active) | 0.0553 µM (active) | 1.44 µM (inactive) | 0.266 µM (active) | 0.667 µM (active) | 0.187 µM (active) | 0.0526 µM (active) | 0.0244 µM (active) | < 0.0182 µM (active) | 0.733 µM (active)
4 | O=C(O)Cc1ccccc1CCc1ccccc1Cl | > 100 µM (inactive) | > 100 µM (inactive) | > 100 µM (inactive) | > 100 µM (inactive) | > 100 µM (inactive) | > 100 µM (inactive) |  | > 100 µM (inactive) | > 100 µM (inactive) | > 100 µM (inactive) | > 100 µM (inactive) | > 100 µM (inactive) | 96.4 µM (inactive) | > 100 µM (inactive) | > 100 µM (inactive) | > 100 µM (inactive) | 93.8 µM (inactive) | > 100 µM (inactive) | > 100 µM (inactive) | 
5 | Cc1cc(N(CCC#N)CCC#N)ccc1/C=C(\NC(=O)/C=C/c1ccccc1)C(=O)NN | > 100 µM (inactive) | > 66.8 µM (inactive) | > 100 µM (inactive) | 99.1 µM (inactive) | > 56.1 µM (inactive) | > 100 µM (inactive) | > 100 µM (inactive) | > 79.6 µM (inactive) | > 100 µM (inactive) | 26 µM (inactive) | > 100 µM (inactive) | 31 µM (inactive) | > 73.3 µM (inactive) | > 100 µM (inactive) | > 100 µM (inactive) | > 100 µM (inactive) | 24.7 µM (inactive) | > 100 µM (inactive) | > 100 µM (inactive) | 25.6 µM (inactive)
